The results in this text go back to patent publication US8722683B2, “Benzodioxole piperazine compounds” (Hoffmann LA-Roche Inc., priority 2011, dated 2014).

In general, Ki refers to a dissociation constant, usually derived from enzyme kinetics or from competition with a known ligand. The low end stands for higher affinity, the high end for lower affinity.

Test [1] has as its target D2 receptor (Homo sapiens (Human), UniProt P14416). Briefly: Radioligand binding ([3H]-spiperone) to cloned D2 receptor expressed in HEK-293 EBNA cells. Conditions: HEK293 EBNA membranes, 0.7 nM [3H]-spiperone. On the procedure: (§1) HEK293 EBNA cells were transiently transfected with expression plasmids encoding for the human D2 or D3 or for the human 5-HT2A receptor, respectively. The cells were harvested 48 h post-transfection, washed three times with cold PBS and stored at −80° C. prior to use. The pellet was suspended in cold 50 mM Tris-HCl buffer containing 10 mM EDTA (pH 7.4) and was homogenized with a Polytron (Kinematica AG, Basel, Switzerland) for 20-30 sec at 12.000 rpm. After centrifugation at 48.000×g for 30 min at 4° C., the pellet was resuspended in cold 10 mM Tris-HCl buffer containing 0.1 mM EDTA (pH 7.4), homogenized, and centrifuged as above. This pellet was further resuspended in a smaller volume of ice cold 10 mM Tris-HCl buffer containing 0.1 mM EDTA (pH 7.4) and homogenized with a Polytron for 20-30 sec at 12.000 rpm. The protein content of this homogenate was determined with the Bio-Rad (Bradford) Protein Assay (Biorad Laboratories GmbH, München, Germany) according to the instructions of the manufacturer using gamma globulin as the standard. This homogenate was stored at −80° C. in aliquots and thawed immediately prior to use.
(§2) Radioligand Binding Assay
(§3) Aliquots of membrane preparations were thawed at RT, resupended in assay buffer (D2, D3: 50 mM Tris-HCl, 120 mM NaCl, 5 mM MgCl2, 1 mM EDTA, 5 mM KCl, 1.5 mM CaCl2, pH=7.4; 5-HT2A: 50 mM Tris-HCl, 10 mM MgCl2, 1 mM EGTA, pH=7.4), homogenized with a Polytron for 20-30 sec at 12.000 rpm and adjusted to a final concentration of approximately 7.5 μg protein/well (D2, D3) and 15 μg protein/well (5-HT2A), respectively.
The binding affinity (Ki) of the compounds was determined using radioligand binding. […] The nonspecific binding was determined with equally composed reaction mixtures in the presence of 10 μM unlabelled spiperone. Per well 45 μl of Microscint 40 (Perkin Elmer, Schwerzenbach, Switzerland) was added, plates for sealed, shaken for 20 min and counted for 3 min on a Topcount Microplate Scintillation Counter (Canberra Packard SA, Zürich, Switzerland) with quenching correction.
(§4) The CPM value for each duplicate of a concentration of competing compound was averaged (y1), then the % specific binding was calculated according to the equation (((y1−non-specific)/(total binding−non-specific))×100). Graphs were plotted with the % specific binding using XLfit, a curve fitting program that iteratively plots the data using Levenberg-Marquardt algorithm. The single site competition analysis equation used was y=A+((B−A)/(1+((x/C)D))), where y is the % specific binding, A is the minimum y, B is the maximum y, C is the IC50, x is the log 10 of the concentration of the competing compound and D is the slope of the curve (the Hill Coefficient). […] The affinity constant (Ki) was calculated using the Cheng-Prusoff equation Ki=(IC50/1+([L]/Kd), where [L] is the concentration of radioligand and Kd is the dissociation constant of the radioligand at the receptor as determined by the saturation isotherm.

The target of test [2] is D3 receptor (Homo sapiens (Human), UniProt P35462). Briefly: Radioligand binding ([3H]-spiperone) to cloned D3 receptor expressed in HEK-293 EBNA cells. Conditions: HEK293 EBNA membranes, 0.5 nM [3H]-spiperone. On the procedure: as §1, §2, §3
D3 receptor, sequence (P35462 whole entry): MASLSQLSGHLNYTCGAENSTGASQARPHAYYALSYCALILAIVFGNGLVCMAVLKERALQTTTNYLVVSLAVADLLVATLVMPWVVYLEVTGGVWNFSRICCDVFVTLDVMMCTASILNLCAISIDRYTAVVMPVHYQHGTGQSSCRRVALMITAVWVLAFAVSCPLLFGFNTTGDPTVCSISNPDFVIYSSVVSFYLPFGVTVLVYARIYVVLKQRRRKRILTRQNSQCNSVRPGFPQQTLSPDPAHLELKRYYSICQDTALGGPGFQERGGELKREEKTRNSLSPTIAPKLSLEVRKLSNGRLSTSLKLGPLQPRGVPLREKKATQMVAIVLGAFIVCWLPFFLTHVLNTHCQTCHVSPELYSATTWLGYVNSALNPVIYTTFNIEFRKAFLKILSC
The binding affinity (Ki) of the compounds was determined using radioligand binding. […] At the end of the incubation, the reaction mixtures were filtered on to unifilter 96-well white microplates with bonded GF/C filters (Packard BioScience, Zürich, Switzerland; preincubated for 1 h in 0.1% polyethylenimine (PEI) in assay buffer) with a Filtermate 196 harvester (Packard BioScience) and washed 3 times with cold assay buffer. The nonspecific binding was determined with equally composed reaction mixtures in the presence of 10 μM unlabelled spiperone. Per well 45 μl of Microscint 40 (Perkin Elmer, Schwerzenbach, Switzerland) was added, plates for sealed, shaken for 20 min and counted for 3 min on a Topcount Microplate Scintillation Counter (Canberra Packard SA, Zürich, Switzerland) with quenching correction.
as §4

D2 receptor, sequence (P14416 whole entry): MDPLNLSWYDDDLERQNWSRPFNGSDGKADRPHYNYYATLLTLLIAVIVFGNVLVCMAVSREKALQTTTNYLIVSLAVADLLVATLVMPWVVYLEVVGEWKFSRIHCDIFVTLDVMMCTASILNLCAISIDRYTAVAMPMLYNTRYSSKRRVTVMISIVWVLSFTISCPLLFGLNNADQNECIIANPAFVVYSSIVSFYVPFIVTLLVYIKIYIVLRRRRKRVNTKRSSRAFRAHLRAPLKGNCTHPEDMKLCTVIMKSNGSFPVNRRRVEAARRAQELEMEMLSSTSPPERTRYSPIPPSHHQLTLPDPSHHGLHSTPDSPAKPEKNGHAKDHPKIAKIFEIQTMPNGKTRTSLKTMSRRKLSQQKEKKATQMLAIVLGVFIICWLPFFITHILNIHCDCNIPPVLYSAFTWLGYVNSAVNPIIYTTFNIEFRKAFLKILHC

In the case of `O=C(C[C@@H]1CCCCO1)N[C@H]1CC[C@H](CCN2CCN(c3cccc4c3OCO4)CC2)CC1` (single isomer, unassigned) [Example 30, Trans-N-{4-[2-(4-Benzo[1,3]dioxol-4-yl-piperazin-1-yl)-ethyl]-cyclohexyl}-2-(S) or (R)-tetrahydro-pyran-2-yl-acetamide], affinity in test [1] was put at a Ki of 220 nM.

`O=C(C[C@H]1CCCCO1)N[C@H]1CC[C@H](CCN2CCN(c3cccc4c3OCO4)CC2)CC1` (single isomer, unassigned) [Example 31, Trans-N-{4-[2-(4-Benzo[1,3]dioxol-4-yl-piperazin-1-yl)-ethyl]-cyclohexyl}-2-(R) or (S)-tetrahydro-pyran-2-yl-acetamide] had a Ki in test [1] of 310 nM.

Consider `COC(C)C(=O)N[C@H]1CC[C@H](CCN2CCN(c3cccc4c3OCO4)CC2)CC1` (stereo in doubt) [Example 25, Trans(S)—N-{4-[2-(4-Benzo[1,3]dioxol-4-yl-piperazin-1-yl)-ethyl]-cyclohexyl}-2-methoxy-propionamide], for which the Ki came out at 21.4 nM in test [2] and 250 nM in test [1].

In the case of `COC(C)C(=O)N[C@H]1CC[C@H](CCN2CCN(c3cccc4c3OCO4)CC2)CC1` (stereo in doubt) [Example 26, Trans(R)—N-{4-[2-(4-Benzo[1,3]dioxol-4-yl-piperazin-1-yl)-ethyl]-cyclohexyl}-2-methoxy-propionamide], the Ki was 4.9 nM in test [2] and 150 nM in test [1].

For the compound `CC(=O)N[C@H]1CC[C@H](CCN2CCN(c3cccc4c3OCO4)CC2)CC1` [Example 1, Trans-N-{4-[2-(4-Benzo[1,3]dioxol-4-yl-piperazin-1-yl)-ethyl]-cyclohexyl}-acetamide], the Ki in test [2] amounted to 1.15 nM; in test [1] it was 67.3 nM.

For `COCCC(=O)N[C@H]1CC[C@H](CCN2CCN(c3cccc4c3OCO4)CC2)CC1` [Example 2, Trans-N-{4-[2-(4-Benzo[1,3]dioxol-4-yl-piperazin-1-yl)-ethyl]-cyclohexyl}-3-methoxy-propionamide], the Ki in test [2] was 1.88 nM; in test [1], 173 nM.

In the case of `O=C(CC1CCCO1)N[C@H]1CC[C@H](CCN2CCN(c3cccc4c3OCO4)CC2)CC1` (stereo partly drawn) [Example 6, Trans-N-{4-[2-(4-Benzo[1,3]dioxol-4-yl-piperazin-1-yl)-ethyl]-cyclohexyl}-2-(tetrahydro-furan-2-yl)-acetamide], the Ki in test [2] is 3.1 nM; in test [1], 189 nM.

On to `O=C(N[C@H]1CC[C@H](CCN2CCN(c3cccc4c3OCO4)CC2)CC1)C1(O)CCC1` [Example 35, 1-Hydroxy-cyclobutanecarboxylic acid-trans-N-{4-[2-(4-benzo[1,3]dioxol-4-yl-piperazin-1-yl)-ethyl]-cyclohexyl}-amide], for which the affinity in test [1], expressed as Ki, was 84.9 nM.

In the case of `O=C(N[C@H]1CC[C@H](CCN2CCN(c3cccc4c3OCO4)CC2)CC1)C1CCCO1` (stereo partly drawn) [Example 44, Tetrahydro-furan-2-carboxylic acid-trans-N-{4-[2-(4-benzo[1,3]dioxol-4-yl-piperazin-1-yl)-ethyl]-cyclohexyl}-amide], the Ki in test [1] turned out to be 117 nM.

In test [2], `CO[C@H]1CC[C@H](CC(=O)N[C@H]2CC[C@H](CCN3CCN(c4cccc5c4OCO5)CC3)CC2)CC1` [Example 56, Trans-N-{4-[2-(4-Benzo[1,3]dioxol-4-yl-piperazin-1-yl)-ethyl]-cyclohexyl}-2-(4-methoxy-cyclohexyl)-acetamide] yielded a Ki of 3.37 nM.

In the case of `O=S(=O)(N[C@H]1CC[C@H](CCN2CCN(c3cccc4c3OCO4)CC2)CC1)c1ccccc1` [Example 67, N-trans-{4-[2-(4-Benzo[1,3]dioxol-4-yl-piperazin-1-yl)-ethyl]-cyclohexyl}-benzenesulfonamide], affinity in test [2] was put at a Ki of 2.88 nM.

In the case of `Cn1cnc(S(=O)(=O)N[C@H]2CC[C@H](CCN3CCN(c4cccc5c4OCO5)CC3)CC2)c1` [Example 69, 1-Methyl-1H-imidazole-4-sulfonic acid-trans-N-{4-[2-(4-benzo[1,3]dioxol-4-yl-piperazin-1-yl)-ethyl]-cyclohexyl}-amide], in test [2], the Ki is 2.25 nM.
